Assay results reported in patent publication US8501746B2, “Organic compounds” (Xenon Pharmaceuticals Inc., priority 2006, dated 2013).

Row | melting point [°C] | SMILES
1 | 235 to 237 | Cc1nc(-n2ccc(-c3ccccc3)cc2=O)sc1C(=O)NCc1ccccc1 [Example 1, N-benzyl-4-methyl-2-(2-oxo-4-phenylpyridin-1(2H)-yl)thiazole-5-carboxamide]
2 | 172 to 174 | Cc1nc(-n2ccc(OCCC3CC3)cc2=O)sc1C(=O)NCc1ccccc1 [Example 1.3, N-Benzyl-2-(4-(2-cyclopropylethoxy)-2-oxopyridin-1(2H)-yl)-4-methylthiazole-5-carboxamide]
3 | 172 to 174 | Cc1nc(-n2ccc(OCCC3CC3)cc2=O)sc1C(=O)NCc1ccc(F)cc1 [Example 1.4, 2-(4-(2-Cyclopropylethoxy)-2-oxopyridin-1(2H)-yl)-N-(4-fluorobenzyl)-4-methylthiazole-5-carboxamide]
4 | 170 to 172 | Cc1nc(-n2ccc(OCCC3CC3)cc2=O)sc1C(=O)NCc1cccnc1 [Example 1.5, 2-(4-(2-Cyclopropylethoxy)-2-oxopyridin-1(2H)-yl)-4-methyl-N-(pyridin-3-ylmethyl)thiazole-5-carboxamide]
5 | 280 to 282 | Cc1nc(-n2ccc(O)cc2=O)sc1C(=O)NCc1ccc(F)cc1 [Example 1.6, N-(4-Fluorobenzyl)-2-(4-hydroxy-2-oxopyridin-1(2H)-yl)-4-methylthiazole-5-carboxamide]
6 | 203 to 204 | Cc1nc(-n2ccc(OCc3ccccc3)cc2=O)[nH]c1C(=O)NCc1cccnc1 [Example 1.8, 2-(4-(Benzyloxy)-2-oxopyridin-1(2H)-yl)-4-methyl-N-(pyridin-3-ylmethyl)-1H-imidazole-5-carboxamide]
7 | 232 to 233 | Cc1nc(-n2ccc(OCc3ccccc3)cc2=O)n(C)c1C(=O)NCc1ccccc1 [Example 1.9, N-Benzyl-2-(4-(benzyloxy)-2-oxopyridin-1(2H)-yl)-1,4-dimethyl-1H-imidazole-5-carboxamide]
8 | 190 to 191 | Cc1c(C(=O)NCc2ccccc2)nc(-n2ccc(OCc3ccccc3)cc2=O)n1C [Example 1.10, N-Benzyl-2-(4-(benzyloxy)-2-oxopyridin-1(2H)-yl)-1,5-dimethyl-1H-imidazole-4-carboxamide]
9 | 200 to 202 | COc1ccn(-c2nc(C)c(C(=O)NCc3cccnc3)s2)c(=O)c1 [Example 1.11, 2-(4-Methoxy-2-oxopyridin-1(2H)-yl)-4-methyl-N-(pyridin-3-ylmethyl)thiazole-5-carboxamide]
10 | 240 to 242 | Cc1nc(-n2ccc(OCc3ccc(C(F)(F)F)o3)cc2=O)sc1C(=O)NCc1cccnc1 [Example 1.12, 4-Methyl-2-(2-oxo-4-((5-(trifluoromethyl)furan-2-yl)methoxy)pyridin-1(2H)-yl)-N-(pyridin-3-ylmethyl)thiazole-5-carboxamide]
11 | 231 to 233 | Cc1nc(-n2ccc(OCc3ccc(F)cc3)cc2=O)sc1C(=O)NCc1cccnc1 [Example 1.13, 2-(4-(4-Fluorobenzyloxy)-2-oxopyridin-1(2H)-yl)-4-methyl-N-(pyridin-3-ylmethyl)thiazole-5-carboxamide]
12 | 249 to 251 | Cc1nc(-n2ccc(OCc3ccc(F)cc3)cc2=O)sc1C(=O)NCc1ccc(F)cc1 [Example 1.14, N-(4-Fluorobenzyl)-2-(4-(4-fluorobenzyloxy)-2-oxopyridin-1(2H)-yl)-4-methylthiazole-5-carboxamide]
13 | 250 to 252 | Cc1nc(-n2ccc(O)cc2=O)sc1C(=O)NCc1cccc(F)c1 [Example 1.15, N-(3-Fluorobenzyl)-2-(4-hydroxy-2-oxopyridin-1(2H)-yl)-4-methylthiazole-5-carboxamide]
14 | 240 to 242 | Cc1nc(-n2ccc(O)cc2=O)sc1C(=O)NCC1CC1 [Example 1.16, N-(Cyclopropylmethyl)-2-(4-hydroxy-2-oxopyridin-1(2H)-yl)-4-methylthiazole-5-carboxamide]
15 | 234 to 236 | Cc1nc(-n2ccc(O)cc2=O)sc1C(=O)NCCC1CC1 [Example 1.17, N-(2-Cyclopropylethyl)-2-(4-hydroxy-2-oxopyridin-1(2H)-yl)-4-methylthiazole-5-carboxamide]
16 | 225 to 227 | Cc1nc(-n2ccc(O)cc2=O)sc1C(=O)NCCc1ccc(F)cc1 [Example 1.18, N-(4-Fluorophenethyl)-2-(4-hydroxy-2-oxopyridin-1(2H)-yl)-4-methylthiazole-5-carboxamide]
17 | 294 to 296 | Cc1nc(-n2ccc(O)cc2=O)sc1C(=O)NCc1ccc(F)c(F)c1 [Example 1.19, N-(3,4-Difluorobenzyl)-2-(4-hydroxy-2-oxopyridin-1(2H)-yl)-4-methylthiazole-5-carboxamide]
18 | 275 to 278 | Cc1nc(-n2ccc(O)cc2=O)sc1C(=O)NCc1ccncc1 [Example 1.20, 2-(4-Hydroxy-2-oxopyridin-1(2H)-yl)-4-methyl-N-(pyridin-4-ylmethyl)thiazole-5-carboxamide]
19 | 165 to 167 | Cc1cc(-n2ccc(OCc3ccccc3)cc2=O)sc1C(=O)NCc1cccnc1 [Example 1.23, 5-(4-(Benzyloxy)-2-oxopyridin-1(2H)-yl)-3-methyl-N-(pyridin-3-ylmethyl)thiophene-2-carboxamide]
20 | 243 to 245 | Cc1nc(-n2ccc(OCc3ccc(F)cc3)cc2=O)sc1C(=O)NCc1ccccc1 [Example 1.24, N-Benzyl-2-(4-(4-fluorobenzyloxy)-2-oxopyridin-1(2H)-yl)-4-methylthiazole-5-carboxamide]

Row | melting point [°C] | SMILES
21 | 219 to 220 | Cc1nc(-n2ccc(OCc3ccccc3)cc2=O)sc1C(=O)NCc1ccccc1 [Example 2, N-Benzyl-2-(4-(benzyloxy)-2-oxopyridin-1(2H)-yl)-4-methylthiazole-5-carboxamide]
22 | 171 to 172 | Cc1nc(-n2ccc(N)cc2=O)sc1C(=O)NCc1ccccc1 [Example 3, 2-(4-Amino-2-oxopyridin-1(2H)-yl)-N-benzyl-4-methylthiazole-5-carboxamide]
23 | 186 to 187 | Cc1nc(-n2ccnc(C)c2=O)sc1C(=O)NCc1ccccc1 [Example 3.1, N-Benzyl-4-methyl-2-(3-methyl-2-oxopyrazin-1(2H)-yl)thiazole-5-carboxamide]
24 | 166 to 167 | Cc1nc(-n2cc(OCc3ccccc3)ccc2=O)sc1C(=O)NCc1ccccc1 [Example 3.2, N-Benzyl-2-(5-(benzyloxy)-2-oxopyridin-1(2H)-yl)-4-methylthiazole-5-carboxamide]
25 | 173 to 174 | Cc1nc(-n2cc(Cl)ccc2=O)sc1C(=O)NCc1ccccc1 [Example 3.3, N-Benzyl-2-(5-chloro-2-oxopyridin-1(2H)-yl)-4-methylthiazole-5-carboxamide]
26 | 148 to 149 | Cc1nc(-n2cc(C(F)(F)F)ccc2=O)sc1C(=O)NCc1ccccc1 [Example 3.4, N-Benzyl-4-methyl-2-(2-oxo-5-(trifluoromethyl)pyridin-1(2H)-yl)thiazole-5-carboxamide]
27 | 197 to 198 | Cc1nc(-n2ccc(C(F)(F)F)cc2=O)sc1C(=O)NCc1ccccc1 [Example 3.6, N-Benzyl-4-methyl-2-(2-oxo-4-(trifluoromethyl)pyridin-1(2H)-yl)thiazole-5-carboxamide]
28 | 198 to 201 | Cc1nc(-n2cccc(OCc3ccccc3)c2=O)sc1C(=O)NCc1ccccc1 [Example 3.7, N-Benzyl-2-(3-(benzyloxy)-2-oxopyridin-1(2H)-yl)-4-methylthiazole-5-carboxamide]
29 | 225 to 226 | Cc1nc(-n2ccc3c(OCc4ccccc4)cccc3c2=O)sc1C(=O)NCc1ccccc1 [Example 3.8, N-Benzyl-2-(5-(benzyloxy)-1-oxoisoquinolin-2(1H)-yl)-4-methylthiazole-5-carboxamide]
30 | 213 to 216 | Cc1nc(-n2c(=O)ccc3cc(OCc4ccccc4)ccc32)sc1C(=O)NCc1ccccc1 [Example 3.9, N-Benzyl-2-(6-(benzyloxy)-2-oxoquinolin-1(2H)-yl)-4-methylthiazole-5-carboxamide]
31 | 180 to 182 | Cc1nc(-n2ccccc2=O)sc1C(=O)NCc1ccccc1 [Example 3.10, N-Benzyl-4-methyl-2-(2-oxopyridin-1(2H)-yl)thiazole-5-carboxamide]
32 | 223 to 225 | Cc1nc(-n2ccc(OCc3ccccc3)cc2=O)sc1C(=O)NCc1ccc(F)cc1 [Example 3.12, 2-(4-(Benzyloxy)-2-oxopyridin-1(2H)-yl)-N-(4-fluorobenzyl)-4-methylthiazole-5-carboxamide]
33 | 243 to 245 | Cc1nc(-n2ccc(C(=O)Nc3ccccc3)cc2=O)sc1C(=O)NCc1ccccc1 [Example 3.13, N-Benzyl-4-methyl-2-(2-oxo-4-(phenylcarbamoyl)pyridin-1(2H)-yl)thiazole-5-carboxamide]
34 | 225 to 227 | Cc1nc(-n2cccc(C(=O)Nc3ccccc3)c2=O)sc1C(=O)NCc1ccccc1 [Example 3.14, N-Benzyl-4-methyl-2-(2-oxo-3-(phenylcarbamoyl)pyridin-1(2H)-yl)thiazole-5-carboxamide]
35 | 223 to 225 | Cc1nc(-n2cc(C(=O)Nc3ccccc3)ccc2=O)sc1C(=O)NCc1ccccc1 [Example 3.15, N-Benzyl-4-methyl-2-(2-oxo-5-(phenylcarbamoyl)pyridin-1(2H)-yl)thiazole-5-carboxamide]
36 | 218 to 220 | Cc1nc(-n2ccccc2=O)sc1C(=O)NCc1cccnc1 [Example 3.16, 4-Methyl-2-(2-oxopyridin-1(2H)-yl)-N-(pyridin-3-ylmethyl)thiazole-5-carboxamide]
37 | 225 to 227 | Cc1nc(-n2ccc(OCc3ccccc3)cc2=O)sc1C(=O)NCc1ccc(F)c(F)c1 [Example 3.17, 2-(4-(Benzyloxy)-2-oxopyridin-1(2H)-yl)-N-(3,4-difluorobenzyl)-4-methylthiazole-5-carboxamide]
38 | 175 to 177 | Cc1nc(-n2ccc(COc3ccccc3)cc2=O)sc1C(=O)NCc1ccccc1 [Example 3.18, N-Benzyl-4-methyl-2-(2-oxo-4-(phenoxymethyl)pyridin-1(2H)-yl)thiazole-5-carboxamide]
39 | 175 to 177 | Cc1cc(-n2ccc(OCc3ccccc3)cc2=O)sc1C(=O)NCc1ccc(F)cc1 [Example 3.21, 5-(4-(Benzyloxy)-2-oxopyridin-1(2H)-yl)-N-(4-fluorobenzyl)-3-methylthiophene-2-carboxamide]
